Source: ChEMBL document CHEMBL5325400 (Eur J Med Chem, 2023)
Active and inactive are the calls of the source. No cut-off for these calls is given here.

Key:
[1] = AUC(0 to t) in Sprague-Dawley rat at 1 mg/kg, iv by LC-MS analysis; format: ADME, organism-based; design: dose 1 mg/kg, route iv; conditions: in vivo
A549 [2] = assay: Antitumor activity against human A549 cells xenografted in BALB/c mouse assessed as reduction in EGFR phosphorylation at S473 residue in tumor at 5 to 10 mg/kg, ip administered every other day for 25 days by Western blotting analysis; format: functional, organism-based; conditions: dose 5-10 mg/kg, time 25.0 day
[3] = Cmax in Sprague-Dawley rat at 1 mg/kg, iv by LC-MS analysis; format: ADME, organism-based; design: dose 1 mg/kg, route iv; conditions: in vivo
A549 [4] = assay: Induction of cell cycle arrest in human A549 cells assessed as accumulation at G2 phase at 40 nM incubated for 24 hrs by PI staining based flow cytometry (Rvb= 12.49%); format: functional
A549 [5] = assay: Residual cell migration in human A549 cells at 10 nM incubated for 12 hrs by crystal violet staining based transwell assay; conditions: A549, 12 h
A549 [6] = assay: Induction of cell cycle arrest in human A549 cells assessed as accumulation at G1 phase at 40 nM incubated for 24 hrs by PI staining based flow cytometry (Rvb= 65.68%); format: functional
A549 [7] = assay: Antitumor activity against human A549 cells xenografted in BALB/c mouse assessed as tumor growth inhibition at 10 mg/kg, ip administered every other day for 25 days; format: functional; conditions: A549, 600 h, time 25 day, read-out: TGI
[8] = Toxicity in BALB/c nude mouse xenografted with human A549 cells assessed as pathological changes in spleen at 5 to 10 mg/kg, ip administered every other day for 25 days by hematoxylin and eosin staining based microscopic analysis; format: organism-based; conditions: in vivo, 600 h, dose 5-10 mg/kg, time 25 day
A549 [9] = assay: Induction of apoptosis in human A549 cells assessed as viable cells at 10 nM incubated for 24 hrs by annexin V-FITC/propidium iodide staining based flow cytometry analysis (reference value: 96.44%); format: functional; conditions: read-out: Activity
[10] = Toxicity in BALB/c mouse assessed as change in body weight at 10 mg/kg, ip; format: organism-based; conditions: in vivo
A549 [11] = assay: Antitumor activity against human A549 cells xenografted in BALB/c mouse assessed as tumor growth inhibition at 5 mg/kg, ip administered every other day for 25 days; format: functional; conditions: A549, 600 h, time 25 day, read-out: TGI
Tubulin = assay: Binding affinity to tubulin (unknown origin) assessed as dissociation constant by SPR analysis; format: protein-complex assay, Homo sapiens
A549 [12] = assay: Antimigratory activity against human A549 cells assessed as inhibition of cell migration at 5 nM and incubated for 12 hrs by scratch wound healing assay (reference value: 29.5 +/- 1.34%); format: functional; design: scale not given: the % may be the effect or the level left
A549 [13] = assay: Induction of apoptosis in human A549 cells assessed as late apoptotic cells at 20 nM incubated for 24 hrs by annexin V-FITC/propidium iodide staining based flow cytometry analysis (reference value: 0.37%); format: functional
[14] = Toxicity in BALB/c mouse assessed as drug tolerability at 10 mg/kg, ip; format: organism-based; conditions: in vivo
Tubulin (Sus scrofa) = Tubulin (Sus scrofa) (UniProt P02554+P02550); assay: Inhibition of porcine brain tubulin polymerization at 10 uM measured at 1 min interval for 60 mins by fluorescence based analysis
A2780/Taxol = assay: Antiproliferative activity against paclitaxel resistant human A2780/Taxol cells assessed as inhibition of cell growth incubated for 48 hrs by MTT assay; format: functional, cell-based
A549 [15] = assay: Induction of apoptosis in human A549 cells assessed as late apoptotic cells at 10 nM incubated for 24 hrs by annexin V-FITC/propidium iodide staining based flow cytometry analysis (reference value: 0.37%); format: functional
A549 [16] = assay: Antitumor activity against human A549 cells xenografted in ip dosed BALB/c mouse assessed as decrease in Ki-67 expression in tumor administered every other day for 25 days by immunohistochemistry analysis; format: functional, organism-based; conditions: dose 10.0 mg/kg, time 25.0 day
[17] = Toxicity in BALB/c mouse assessed as adverse effect at 10 mg/kg, ip; format: organism-based; conditions: in vivo
HeLa = assay: Antiproliferative activity against human HeLa cells assessed as inhibition of cell growth measured after 48 hrs by MTT assay; format: functional, cell-based
A549 [18] = assay: Induction of cell cycle arrest in human A549 cells assessed as accumulation at S phase at 40 nM incubated for 24 hrs by PI staining based flow cytometry (Rvb= 20.94%); format: functional
Tubulin (Homo sapiens) = Tubulin (Homo sapiens) (UniProt P68371+Q9H4B7+P0DPH7+P68366+Q13509+Q71U36+P04350+Q3ZCM7+P07437+P68363+Q9BQE3+Q6PEY2+Q13885+Q9BVA1+Q9BUF5); assay: Inhibition of tubulin polymerization in human A549 cells assessed as microtubule network polymerization at 100 nM measured after 18 hrs by Alexa Fluor 488 and DAPI staining based confocal microscopic analysis; format: cell-based
A549 [19] = assay: Inhibition of cell migration in human A549 cells assessed as total number of cells migrated at 40 nM incubated for 12 hrs by crystal violet staining based transwell assay (reference value: 724 +/- 16); format: functional
A549 [20] = assay: Induction of apoptosis in human A549 cells assessed as viable cells at 40 nM incubated for 24 hrs by annexin V-FITC/propidium iodide staining based flow cytometry analysis (reference value: 96.44%); format: functional; conditions: read-out: Activity
A549 [21] = assay: Induction of apoptosis in human A549 cells assessed as early apoptotic cells at 20 nM incubated for 24 hrs by annexin V-FITC/propidium iodide staining based flow cytometry analysis (reference value: 0.84%); format: functional
[22] = Toxicity in BALB/c mouse xenografted with human A549 cells assessed as change in body weight at 10 mg/kg, ip administered every other day for 25 days; format: organism-based; conditions: in vivo, 600 h, time 25 day
A549 [23] = assay: Induction of cell cycle arrest in human A549 cells assessed as accumulation at G2 phase at 10 nM incubated for 24 hrs by PI staining based flow cytometry (Rvb= 12.49%); format: functional
SK-OV-3 = assay: Antiproliferative activity against human SK-OV-3 cells assessed as inhibition of cell growth measured after 48 hrs by MTT assay; format: functional, cell-based; conditions: SK-OV-3, 48 h
[24] = Toxicity in BALB/c mouse xenografted with human A549 cells assessed as change in body weight at 5 mg/kg, ip administered every other day for 25 days; format: organism-based; conditions: in vivo, 600 h, time 25 day
A549 [25] = assay: Antitumor activity against human A549 cells xenografted in BALB/c mouse assessed as tumor weight at 5 mg/kg, ip administered every other day for 25 days; format: functional, organism-based; conditions: time 25.0 day
A549 [26] = assay: Residual cell migration in human A549 cells at 5 nM incubated for 12 hrs by crystal violet staining based transwell assay; conditions: A549, 12 h
[27] = Toxicity in BALB/c nude mouse xenografted with human A549 cells assessed as pathological changes in kidney at 5 to 10 mg/kg, ip administered every other day for 25 days by hematoxylin and eosin staining based microscopic analysis; format: organism-based; conditions: in vivo, 600 h, dose 5-10 mg/kg, time 25 day
A549 [28] = assay: Induction of cell cycle arrest in human A549 cells assessed as accumulation at G1 phase at 10 nM incubated for 24 hrs by PI staining based flow cytometry (Rvb= 65.68%); format: functional
A549 [29] = assay: Antiproliferative activity against human A549 cells expressing lentivirus RNAi VTI-96658 assessed as inhibition of cell growth measured after 48 hrs by MTT assay; format: functional, cell-based

Sequence of Tubulin (Sus scrofa) (P02550 whole entry, looked up): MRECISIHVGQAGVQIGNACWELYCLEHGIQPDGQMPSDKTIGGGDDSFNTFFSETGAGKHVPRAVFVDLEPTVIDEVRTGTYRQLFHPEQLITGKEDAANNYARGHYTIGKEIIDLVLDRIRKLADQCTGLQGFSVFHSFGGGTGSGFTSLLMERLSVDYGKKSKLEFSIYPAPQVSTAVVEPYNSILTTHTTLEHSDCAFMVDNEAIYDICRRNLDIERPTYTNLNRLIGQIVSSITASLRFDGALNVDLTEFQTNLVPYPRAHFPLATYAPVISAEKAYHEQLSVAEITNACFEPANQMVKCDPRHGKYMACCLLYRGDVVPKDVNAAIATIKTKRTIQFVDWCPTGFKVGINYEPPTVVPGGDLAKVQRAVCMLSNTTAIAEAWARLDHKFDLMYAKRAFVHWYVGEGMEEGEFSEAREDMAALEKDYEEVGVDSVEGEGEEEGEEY
Sequence of Tubulin (Sus scrofa) (P02554 whole entry, looked up): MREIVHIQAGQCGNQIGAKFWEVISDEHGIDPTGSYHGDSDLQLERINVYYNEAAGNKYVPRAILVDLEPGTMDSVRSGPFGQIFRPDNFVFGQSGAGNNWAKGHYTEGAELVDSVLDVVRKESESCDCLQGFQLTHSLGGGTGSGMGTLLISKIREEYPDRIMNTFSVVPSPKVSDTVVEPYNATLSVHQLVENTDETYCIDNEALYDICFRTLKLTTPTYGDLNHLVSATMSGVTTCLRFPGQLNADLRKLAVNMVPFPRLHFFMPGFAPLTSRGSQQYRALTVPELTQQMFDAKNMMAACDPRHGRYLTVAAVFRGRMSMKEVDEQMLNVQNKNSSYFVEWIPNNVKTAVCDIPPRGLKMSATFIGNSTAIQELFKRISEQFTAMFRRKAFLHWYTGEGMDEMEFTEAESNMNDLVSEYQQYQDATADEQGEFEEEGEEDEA

COc1cccc(Nc2cc(Nc3cccc(NC(=O)C4CC4)c3)ncn2)c1
AUC(0-t) [1]: 239 ng·h/mL
Activity (A549 [2]): inactive
Cmax [3]: 87.86 ng/mL
Activity (A549 [4]): 53.15%
level, % of control at 0.01 µM (A549 [5]): 70.6%
Activity (A549 [6]): 21.8%
inhibition in vivo at 10 mg/kg (A549 [7]): 65.4%
Activity [8]: Non-Toxic
viability at 0.01 µM (A549 [9]): 82.2%
Activity [10]: Non-Toxic
inhibition in vivo at 5 mg/kg (A549 [11]): 39.1%
Kd (Tubulin): 43200 nM
Activity (A549 [12]): 23.2%
Activity (A549 [13]): 16.31%
Activity [14]: Non-Toxic
inhibition (Tubulin (Sus scrofa)): Active
IC50 (A2780/Taxol): 132 nM
Activity (A549 [15]): 9.78%
Activity (A549 [16]): Dose-Dependent Effect
Activity [17]: Non-Toxic
IC50 (HeLa): 3.6 nM
Activity (A549 [18]): 15.31%
inhibition (Tubulin (Homo sapiens)): Active
Activity (A549 [19]): 157
viability at 0.04 µM (A549 [20]): 63.6%
Activity (A549 [21]): 1.69%
Activity [22]: Non-Toxic
Activity (A549 [23]): 23.37%
IC50 (SK-OV-3): 1.5 nM
Activity [24]: Non-Toxic
Activity (A549 [25]): Active
level, % of control at 0.005 µM (A549 [26]): 91.5%
Activity [27]: Non-Toxic
Activity (A549 [28]): 58.47%
Activity (A549 [29]): Active
